Test results from PubChem BioAssay AID192 (DTP/NCI, 2004).
Values joined by “and” are separate entries in the source; they are usually repeats but may differ in a detail not shown here. Equal values may be shown once. Inconclusive results and toxic doses are left out.

Test system: BDF1 mice, B16 melanoma ip, median survival T/C
Experiment: NCI In Vivo Anticancer Drug Screen. Data for tumor model B16 Melanoma (intraperitoneal) in B6D2F1 (BDF1) mice
Settings: endpoint: median survival time, higher = longer survival
Summary of the method: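 Antitumor activity is assessed in mice bearing a transplanted tumor, with survival or tumor size compared against vehicle-dosed controls and expressed as T/C.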

[1] = dose: 25.0 mg/kg/injection, schedule: Q04DX003 (ip), vehicle: saline
[2] = dose: 12.5 mg/kg/injection, schedule: Q01DX009 (ip), vehicle: saline with Tween-80
[3] = dose: 25.0 mg/kg/injection, schedule: Q01DX009 (ip), vehicle: saline with Tween-80
[4] = dose: 12.5 mg/kg/injection, schedule: Q01DX009 (ip), vehicle: Klucel (hydroxypropylcellulose) (HPC)
[5] = dose: 25.0 mg/kg/injection, schedule: Q01DX009 (ip), vehicle: Klucel (hydroxypropylcellulose) (HPC)
[6] = dose: 50.0 mg/kg/injection, schedule: Q01DX009 (ip), vehicle: Klucel (hydroxypropylcellulose) (HPC)

CN(C)N=C1CCCC1
T/C (dose: 16.5 mg/kg/injection, schedule: Q04DX003 (ip), vehicle: saline): 107 % of control
T/C [1]: 115 % of control
T/C (dose: 37.5 mg/kg/injection, schedule: Q04DX003 (ip), vehicle: saline): 112 % of control

S=P(NCCS)(N1CC1)N1CC1
T/C (dose: 6.25 mg/kg/injection, schedule: Q01DX009 (ip), vehicle: saline with Tween-80): 95 % of control
T/C [2]: 96 % of control
T/C [3]: 98 % of control
T/C (dose: 100.0 mg/kg/injection, schedule: Q04DX003 (ip), vehicle: saline with Tween-80): 105 % of control
T/C (dose: 200.0 mg/kg/injection, schedule: Q04DX003 (ip), vehicle: saline with Tween-80): 97 % of control
T/C (dose: 400.0 mg/kg/injection, schedule: Q04DX003 (ip), vehicle: saline with Tween-80): 95 % of control

Cc1noc(/N=C/c2cccc(Cl)c2)c1C
T/C (dose: 175.0 mg/kg/injection, schedule: Q04DX003 (ip), vehicle: Klucel (hydroxypropylcellulose) (HPC)): 107 % of control
T/C (dose: 265.0 mg/kg/injection, schedule: Q04DX003 (ip), vehicle: Klucel (hydroxypropylcellulose) (HPC)): 116 % of control
T/C (dose: 400.0 mg/kg/injection, schedule: Q04DX003 (ip), vehicle: Klucel (hydroxypropylcellulose) (HPC)): 109 % of control
T/C (dose: 600.0 mg/kg/injection, schedule: Q04DX003 (ip), vehicle: Klucel (hydroxypropylcellulose) (HPC)): 107 % of control

O=N[O-].[Co].[NH2-].[NH2-].[NH2-].[NH2-].[NH2-]
T/C (dose: 12.5 mg/kg/injection, schedule: Q01DX009 (ip), vehicle: saline): 90 % of control
T/C (dose: 12.5 mg/kg/injection, schedule: Q04DX003 (ip), vehicle: saline): 107 % of control
T/C (dose: 25.0 mg/kg/injection, schedule: Q01DX009 (ip), vehicle: saline): 97 % of control
T/C [1]: 105 % of control
T/C (dose: 50.0 mg/kg/injection, schedule: Q01DX009 (ip), vehicle: saline): 100 % of control
T/C (dose: 50.0 mg/kg/injection, schedule: Q04DX003 (ip), vehicle: saline): 100 % of control

COc1ccc2[nH]c3c(C)c4cc[n+](C)c(C)c4cc3c2c1
T/C (dose: 10.0 mg/kg/injection, schedule: Q04DX003 (ip), vehicle: water): 113 % of control
T/C (dose: 20.0 mg/kg/injection, schedule: Q04DX003 (ip), vehicle: water): 98 % of control
T/C (dose: 40.0 mg/kg/injection, schedule: Q04DX003 (ip), vehicle: water): 105 % of control
T/C (dose: 80.0 mg/kg/injection, schedule: Q04DX003 (ip), vehicle: water): 117 % of control

COc1ccc(C(=O)C(C)C(O)C(=O)O)c(O)c1C (stereo not drawn)
T/C (dose: 100.0 mg/kg/injection, schedule: Q01DX009 (ip), vehicle: other): 93 % of control

C[C@]12CCC(=O)C=C1CC[C@@H]1[C@@H]2C(=O)C[C@@]2(C)[C@H]1CC[C@]2(O)C(=O)CO
T/C (dose: 40.0 mg/kg/injection, schedule: Q02DX009 (ip), vehicle: Klucel (hydroxypropylcellulose) (HPC)): 100 % of control
T/C (dose: 80.0 mg/kg/injection, schedule: Q02DX009 (ip), vehicle: Klucel (hydroxypropylcellulose) (HPC)): 112 % of control
T/C (dose: 160.0 mg/kg/injection, schedule: Q02DX009 (ip), vehicle: Klucel (hydroxypropylcellulose) (HPC)): 97 % of control
T/C (dose: 640.0 mg/kg/injection, schedule: Q02DX009 (ip), vehicle: Klucel (hydroxypropylcellulose) (HPC)): 97 % of control

COc1cccc2c1C(=O)c1c(O)c3c(c(O)c1C2=O)CC(O)(/C(C)=N/NC(=O)CCC(=O)N/N=C(\C)C1(O)Cc2c(O)c4c(c(O)c2C(OC2CC(N)C(O)C(C)O2)C1)C(=O)c1c(OC)cccc1C4=O)CC3OC1CC(N)C(O)C(C)O1 (stereo not drawn)
T/C (dose: 4.0 mg/kg/injection, schedule: Q01DX001 (ip), vehicle: water): 163 % of control
T/C (dose: 8.0 mg/kg/injection, schedule: Q01DX001 (ip), vehicle: water): 165 % of control and 168 % of control and 172 % of control
T/C (dose: 16.0 mg/kg/injection, schedule: Q01DX001 (ip), vehicle: water): 189 % of control and 292 % of control
T/C (dose: 32.0 mg/kg/injection, schedule: Q01DX001 (ip), vehicle: water): 123 % of control and 293 % of control and 313 % of control
T/C (dose: 64.0 mg/kg/injection, schedule: Q01DX001 (ip), vehicle: water): 315 % of control

CC(=O)C1(O)Cc2c(O)c3c(c(O)c2C(OC2CC(N)C(O)C(C)O2)C1)C(=O)c1ccccc1C3=O (stereo not drawn)
T/C (dose: 0.16 mg/kg/injection, schedule: Q01DX001 (ip), vehicle: water): 117 % of control
T/C (dose: 0.31 mg/kg/injection, schedule: Q01DX001 (ip), vehicle: water): 121 % of control
T/C (dose: 0.63 mg/kg/injection, schedule: Q01DX001 (ip), vehicle: water): 123 % of control
T/C (dose: 1200.0 micrograms/kg/injection, schedule: Q04DX003 (ip), vehicle: water): 94 % of control

Cc1c(Cl)cccc1NC(=O)Nc1ccc(Cl)c(Cl)c1
T/C [4]: 105 % of control
T/C [5]: 92 % of control
T/C [6]: 91 % of control

O=S1(=O)OCc2ccccc21
T/C [4]: 115 % of control
T/C [5]: 108 % of control
T/C [6]: 118 % of control

O=C(NCCCCC(NC(=O)c1ccccc1)C(=O)O)OCc1ccccc1 (stereo not drawn)
T/C (dose: 50.0 mg/kg/injection, schedule: Q01DX009 (ip), vehicle: saline with Tween-80): 101 % of control
T/C (dose: 100.0 mg/kg/injection, schedule: Q01DX009 (ip), vehicle: saline with Tween-80): 96 % of control
T/C (dose: 200.0 mg/kg/injection, schedule: Q01DX009 (ip), vehicle: saline with Tween-80): 95 % of control
T/C (dose: 400.0 mg/kg/injection, schedule: Q01DX009 (ip), vehicle: saline with Tween-80): 86 % of control

NC(=S)N/N=C\c1nccc2c(C(F)(F)F)cccc12
T/C (dose: 1.5 mg/kg/injection, schedule: Q04DX003 (ip), vehicle: saline with Tween-80): 105 % of control
T/C (dose: 3.0 mg/kg/injection, schedule: Q04DX003 (ip), vehicle: saline with Tween-80): 110 % of control
T/C (dose: 6.0 mg/kg/injection, schedule: Q04DX003 (ip), vehicle: saline with Tween-80): 100 % of control
T/C (dose: 12.0 mg/kg/injection, schedule: Q04DX003 (ip), vehicle: saline with Tween-80): 102 % of control

ClC1=C(Cl)C2(Cl)C3C(Cl)C(Cl)CC3C1(Cl)C2(Cl)Cl (stereo not drawn)
T/C [2]: 95 % of control
T/C [3]: 97 % of control

c1cc(NC2CCCCC2)ccc1CN1CCOCC1
T/C (dose: 12.5 mg/kg/injection, schedule: Q01DX009 (ip), vehicle: saline + Tween-80 + alcohol): 100 % of control and 104 % of control
T/C (dose: 25.0 mg/kg/injection, schedule: Q01DX009 (ip), vehicle: saline + Tween-80 + alcohol): 91 % of control and 102 % of control
T/C (dose: 50.0 mg/kg/injection, schedule: Q01DX009 (ip), vehicle: saline + Tween-80 + alcohol): 91 % of control and 97 % of control
T/C (dose: 100.0 mg/kg/injection, schedule: Q01DX009 (ip), vehicle: saline + Tween-80 + alcohol): 88 % of control and 97 % of control
T/C (dose: 200.0 mg/kg/injection, schedule: Q01DX009 (ip), vehicle: saline + Tween-80 + alcohol): 88 % of control and 89 % of control
T/C (dose: 400.0 mg/kg/injection, schedule: Q01DX009 (ip), vehicle: saline + Tween-80 + alcohol): 95 % of control

CCC[CH2][Sn]1([CH2]CCC)[O]C2C(CO)OC(n3ccc(N)nc3=O)C2[O]1 (stereo not drawn)
T/C (dose: 0.78 mg/kg/injection, schedule: Q01DX009 (ip), vehicle: Klucel (hydroxypropylcellulose) (HPC)): 99 % of control
T/C (dose: 1.56 mg/kg/injection, schedule: Q01DX009 (ip), vehicle: Klucel (hydroxypropylcellulose) (HPC)): 123 % of control
T/C (dose: 3.12 mg/kg/injection, schedule: Q01DX009 (ip), vehicle: Klucel (hydroxypropylcellulose) (HPC)): 116 % of control
T/C (dose: 6.25 mg/kg/injection, schedule: Q01DX009 (ip), vehicle: Klucel (hydroxypropylcellulose) (HPC)): 104 % of control and 124 % of control
